Assay results taken from patent US5993815A, “Methods and compositions for inhibiting the activation of thrombin-activatable fibrinolysis inhibitor (TAFI)” (University of Vermont, priority 1997, dated 1999).

Assays:
Assay type in all cases: biochemical
[1] = molecular target: T1, thrombin in complex with thrombomodulin (activation of purified human TAFI) (Homo sapiens, UniProt P00734); experiment: two-stage TAFI activation assay, chromogenic substrate hippuryl arginine; conditions: FPA-CK 50 nmol/L present during incubation of TAFI with thrombin and thrombomodulin, 10 minutes at 22° C.
T1 construct: Prothrombin was purified as described previously and used to prepare thrombin; made in house
Protocol: In a 25-μL reaction volume, TAFI zymogen (0.8 μmol/L final concentration) is incubated with thrombomodulin (40 nmol/L final concentration), Ca^2+ (5.0 mmol/L final concentration), and thrombin (8.0 nmol/L final concentration) in the presence and absence of the putative peptide for 10 minutes at 22° C. Thrombin is then inhibited by the addition of the Phe-Pro-Arg chloromethyl ketone (FPA-CK 50 nmol/L final concentration). […] A negative control may be used by adding FPA-CK at the initiation of the reaction. In the negative control TAFI is not activated because the thrombin is inhibited from functioning. […] The time course of hippuric acid formation is measured by first correcting the volume in each of the reactions by the addition of a volume of buffer equal to that of the added putative peptide. […] The time course of hippuric acid formation at 22° C. is followed by monitoring absorbance at 254 nm and 0.5 minute intervals using a spectrophotometer such as Beckman DU-65 spectrophotometer (Fullteron, Calif.).
Hydrolysis of the chromogenic substrate, hipurryl arginine, was used to determine whether MoAbTAFI#16 inhibits active TAFI. […] The time course of hippuric acid formation at 22° C. was followed by monitoring absorbance at 254 nm and 0.5 minute intervals using a Beckman DU-65 spectrophotometer (Fullteron, Calif.). […]

[2] = system: clots formed from TAFI-deficient human plasma (TdP); experiment: turbidometric tPA-induced lysis assay of clots formed from TAFI-deficient plasma (TdP); conditions: every concentration studied; lysis time approximately 50 minutes
Protocol: (§1) Preparation of plasma for lysis assays. Pooled (3 to 4 donors) fresh frozen human plasma was purchased from Haematologic Technologies Inc. (Burlington, Vt.) and dialyzed against 4 L of 20 mmol/L HEPES, 150 mmol/L NaCl, pH 7.4 (HBS) at 4° C. with 4 changes overnight. The dialysate, termed normal human plasma (NHP), was stored at -70° C. in 2.0-mL aliquots. TAFI-deficient plasma (TdP) was produced by passing an aliquot, maximally 50 mL, of NHP over a 2.0-mL anti-TAFI affinity column (MoAbTAFI#16-Sepharose 4B) equilibrated in HBS. Depletion of TAFI was verified by Western blot analysis of a sample from each individual fraction. Only the flow-through fractions depleted of TAFI with an A280 equal to the NHP loaded onto the column were pooled and subsequently stored in 2.0 mL aliquots at -70° C. Pooled plasma samples were also subjected to Western blotting and TAFI concentrations were quantified by ELISA.
(§2) Lysis assay. […] After adding the plasma to the microtiter wells, the plate was transferred to a THERMOMAX microtiter plate reader (Molecular Devices). Temperature was maintained at 37° C. and the turbidity was monitored at 405 nm and 2.5-minute intervals. […]
(§3) 3. […] The TAFI-dependent profibrinolytic effect of each compound was evaluated by determination of lysis time of clots formed from both NHP and TdP in the presence of various concentrations of each inhibitor. […]

[3] = molecular target: T2, active TAFI (thrombin-activatable fibrinolysis inhibitor, plasma carboxypeptidase B) in clots formed from normal human plasma (Homo sapiens, UniProt Q96IY4); experiment: turbidometric tPA-induced lysis assay of clots formed from normal human plasma (NHP); conditions: tPA 294 pmol/L, 37° C., TAFI-dependent profibrinolytic effect, read-out: EC50 (shortening of lysis time)
T2 construct: tissue Haematologic Technologies Inc. (Burlington, Vt.); host or cells: pooled (3 to 4 donors) fresh frozen human plasma
T2 sequence (Q96IY4 115-423): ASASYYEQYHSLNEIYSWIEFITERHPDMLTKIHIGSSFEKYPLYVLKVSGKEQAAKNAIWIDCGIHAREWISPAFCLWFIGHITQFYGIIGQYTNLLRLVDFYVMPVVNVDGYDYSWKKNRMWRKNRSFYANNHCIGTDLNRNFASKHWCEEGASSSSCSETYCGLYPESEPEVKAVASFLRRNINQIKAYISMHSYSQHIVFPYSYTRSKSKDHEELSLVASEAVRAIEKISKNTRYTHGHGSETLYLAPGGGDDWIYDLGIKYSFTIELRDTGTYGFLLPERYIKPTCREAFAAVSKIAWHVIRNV
Protocol: as §1, §2, §3

EC50 [3] [µM] | SMILES | active TAFI activity generated [1] | effect on lysis time of clots formed from TdP [2]
– | N=C(N)NCCC[C@H](NC(=O)[C@@H]1CCCN1C(=O)[C@@H](N)Cc1ccccc1)C(=O)CCl [FPA-CK, Phe-Pro-Arg chloromethyl ketone] | No active TAFI activity was generated | –
90 | N=C(N)NCCSC(CC(=O)O)C(=O)O (stereo not drawn) [GEMSA, 2-Guanidinoethylmercaptosuccinic acid] | – | did not affect lysis time
